Experimental data as given in PubChem BioAssay (NCI).
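These data come from cells grown in 96-well plates and exposed to compound for 48 hours at five concentrations. The concentration for full growth arrest is given as TGI.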

Key:
Assay in all cases: DTP human tumour cell line panel, 48 h
U251 CNS = test system: U251 CNS
SW-620 colon = test system: SW-620 colon
SK-MEL-28 melanoma = test system: SK-MEL-28 melanoma
LXFL 529 NSCLC = test system: LXFL 529 NSCLC
OVCAR-4 ovarian = test system: OVCAR-4 ovarian
UACC-257 melanoma = test system: UACC-257 melanoma
CAKI-1 renal = test system: CAKI-1 renal
M19-MEL melanoma = test system: M19-MEL melanoma
HT29 colon = test system: HT29 colon
K-562 leukemia = test system: K-562 leukemia
A498 renal = test system: A498 renal
SR leukemia = test system: SR leukemia
COLO 205 colon = test system: COLO 205 colon
SNB-75 CNS = test system: SNB-75 CNS
SNB-78 CNS = test system: SNB-78 CNS
HOP-92 NSCLC = test system: HOP-92 NSCLC
DLD-1 colon = test system: DLD-1 colon
UO-31 renal = test system: UO-31 renal
OVCAR-3 ovarian = test system: OVCAR-3 ovarian
OVCAR-8 ovarian = test system: OVCAR-8 ovarian
LOX IMVI melanoma = test system: LOX IMVI melanoma
HCT-116 colon = test system: HCT-116 colon
A549 NSCLC = test system: A549 NSCLC
HOP-18 NSCLC = test system: HOP-18 NSCLC
HL-60(TB) leukemia = test system: HL-60(TB) leukemia
HOP-62 NSCLC = test system: HOP-62 NSCLC
NCI-H460 lung = test system: NCI-H460 lung
SF-268 CNS = test system: SF-268 CNS
UACC-62 melanoma = test system: UACC-62 melanoma
CCRF-CEM leukemia = test system: CCRF-CEM leukemia
NCI-H226 lung = test system: NCI-H226 lung
RXF 393 renal = test system: RXF 393 renal
NCI-H23 lung = test system: NCI-H23 lung
DMS 114 small cell lung = test system: DMS 114 small cell lung
OVCAR-5 ovarian = test system: OVCAR-5 ovarian
SF-295 CNS = test system: SF-295 CNS
IGROV1 ovarian = test system: IGROV1 ovarian
TK-10 renal = test system: TK-10 renal
SF-539 CNS = test system: SF-539 CNS
NCI-H522 lung = test system: NCI-H522 lung
KM12 colon = test system: KM12 colon
MALME-3M melanoma = test system: MALME-3M melanoma
M14 melanoma = test system: M14 melanoma
SN12C renal = test system: SN12C renal
SK-MEL-5 melanoma = test system: SK-MEL-5 melanoma
SK-MEL-2 melanoma = test system: SK-MEL-2 melanoma
786-0 renal = test system: 786-0 renal
KM20L2 colon = test system: KM20L2 colon
MOLT-4 leukemia = test system: MOLT-4 leukemia
HCT-15 colon = test system: HCT-15 colon
DMS 273 small cell lung = test system: DMS 273 small cell lung
RPMI-8226 leukemia = test system: RPMI-8226 leukemia
SK-OV-3 ovarian = test system: SK-OV-3 ovarian
ACHN renal = test system: ACHN renal
HCC-2998 colon = test system: HCC-2998 colon
SNB-19 CNS = test system: SNB-19 CNS
MDA-N = test system: MDA-N
BT-549 breast = test system: BT-549 breast
PC-3 prostate = test system: PC-3 prostate
EKVX NSCLC = test system: EKVX NSCLC
MCF7 breast = test system: MCF7 breast
HS 578T breast = test system: HS 578T breast
T-47D breast = test system: T-47D breast
DU-145 prostate = test system: DU-145 prostate
NCI/ADR-RES ovarian = test system: NCI/ADR-RES ovarian
MDA-MB-231 breast = test system: MDA-MB-231 breast
MDA-MB-435 = test system: MDA-MB-435

Molecule O=C1c2ccccc2C(=O)N1Cc1ccccc1-c1c2nc(c(-c3ccccc3CN3C(=O)c4ccccc4C3=O)c3ccc([nH]3)c(-c3ccccc3CN3C(=O)c4ccccc4C3=O)c3nc(c(-c4ccccc4CN4C(=O)c5ccccc5C4=O)c4ccc1[nH]4)C=C3)C=C2 has a TGI (U251 CNS) of over 100 µM, a TGI (SW-620 colon) of over 100 µM and a TGI (SK-MEL-28 melanoma) of over 100 µM. It also gave a TGI (LXFL 529 NSCLC) of over 100 µM, a TGI (OVCAR-4 ovarian) of over 100 µM and a TGI (UACC-257 melanoma) of over 100 µM. It also gave a TGI (CAKI-1 renal) of over 100 µM, a TGI (M19-MEL melanoma) of over 100 µM and a TGI (HT29 colon) of over 100 µM. It also gave a TGI (K-562 leukemia) of over 100 µM, a TGI (A498 renal) of over 100 µM and a TGI (SR leukemia) of over 100 µM. It also gave a TGI (COLO 205 colon) of over 100 µM, a TGI (SNB-75 CNS) of over 100 µM and a TGI (SNB-78 CNS) of over 100 µM. It also gave a TGI (HOP-92 NSCLC) of over 100 µM, a TGI (DLD-1 colon) of over 100 µM and a TGI (UO-31 renal) of over 100 µM. It also gave a TGI (OVCAR-3 ovarian) of over 100 µM, a TGI (OVCAR-8 ovarian) of over 100 µM and a TGI (LOX IMVI melanoma) of over 100 µM. It also gave a TGI (HCT-116 colon) of over 100 µM, a TGI (A549 NSCLC) of over 100 µM and a TGI (HOP-18 NSCLC) of over 100 µM. For the same molecule, the TGI (HL-60(TB) leukemia) was over 100 µM, the TGI (HOP-62 NSCLC) was over 100 µM and the TGI (NCI-H460 lung) was over 100 µM. The TGI (SF-268 CNS) was over 100 µM, the TGI (UACC-62 melanoma) was over 100 µM and the TGI (CCRF-CEM leukemia) was over 100 µM. For the same molecule, the TGI (NCI-H226 lung) was over 100 µM, the TGI (RXF 393 renal) was over 100 µM and the TGI (NCI-H23 lung) was over 100 µM. It also gave a TGI (DMS 114 small cell lung) of over 100 µM, a TGI (OVCAR-5 ovarian) of over 100 µM and a TGI (SF-295 CNS) of over 100 µM. The TGI (IGROV1 ovarian) was over 100 µM, the TGI (TK-10 renal) was over 100 µM and the TGI (SF-539 CNS) was over 100 µM. For the same molecule, the TGI (NCI-H522 lung) was over 100 µM, the TGI (KM12 colon) was over 100 µM and the TGI (MALME-3M melanoma) was over 100 µM. For the same molecule, the TGI (M14 melanoma) was over 100 µM, the TGI (SN12C renal) was over 100 µM and the TGI (SK-MEL-5 melanoma) was over 100 µM. For the same molecule, the TGI (SK-MEL-2 melanoma) was over 100 µM, the TGI (786-0 renal) was over 100 µM and the TGI (KM20L2 colon) was over 100 µM. For the same molecule, the TGI (MOLT-4 leukemia) was over 100 µM, the TGI (HCT-15 colon) was over 100 µM and the TGI (DMS 273 small cell lung) was over 100 µM. For the same molecule, the TGI (RPMI-8226 leukemia) was over 100 µM, the TGI (SK-OV-3 ovarian) was over 100 µM and the TGI (ACHN renal) was over 100 µM.
For NC1=NS(=O)(=O)Nc2nc(-c3ccc([N+](=O)[O-])o3)[nH]c21, the TGI (U251 CNS) was 31.7 µM, the TGI (SW-620 colon) was 35.4 µM and the TGI (SK-MEL-28 melanoma) was 30.1 µM. The TGI (LXFL 529 NSCLC) was 25.7 µM, the TGI (OVCAR-4 ovarian) was 31.3 µM and the TGI (CAKI-1 renal) was 35.7 µM. For the same molecule, the TGI (M19-MEL melanoma) was 32.4 µM, the TGI (HT29 colon) was 42.4 µM and the TGI (K-562 leukemia) was 22.9 µM. It also gave a TGI (A498 renal) of over 100 µM, a TGI (SNB-75 CNS) of 30.3 µM and a TGI (HOP-92 NSCLC) of 27.1 µM. For the same molecule, the TGI (DLD-1 colon) was 32 µM, the TGI (UO-31 renal) was 36.5 µM and the TGI (OVCAR-3 ovarian) was 52.8 µM. For the same molecule, the TGI (OVCAR-8 ovarian) was 89.3 µM, the TGI (LOX IMVI melanoma) was 29.4 µM and the TGI (HCT-116 colon) was 17.7 µM. The TGI (A549 NSCLC) was over 100 µM, the TGI (HOP-18 NSCLC) was 30.3 µM and the TGI (HL-60(TB) leukemia) was 4.93 µM. For the same molecule, the TGI (HOP-62 NSCLC) was 32.4 µM, the TGI (NCI-H460 lung) was 44 µM and the TGI (SF-268 CNS) was 38.7 µM. For the same molecule, the TGI (UACC-62 melanoma) was 30 µM, the TGI (CCRF-CEM leukemia) was 16.9 µM and the TGI (HCC-2998 colon) was 32.2 µM. It also gave a TGI (RXF 393 renal) of 25.5 µM, a TGI (NCI-H23 lung) of 39.4 µM and a TGI (DMS 114 small cell lung) of 34 µM. The TGI (OVCAR-5 ovarian) was 35 µM, the TGI (SF-295 CNS) was 29.8 µM and the TGI (IGROV1 ovarian) was 31.5 µM. It also gave a TGI (TK-10 renal) of 33 µM, a TGI (SNB-19 CNS) of 35.9 µM and a TGI (SF-539 CNS) of 31.6 µM. It also gave a TGI (NCI-H522 lung) of 33.4 µM, a TGI (KM12 colon) of 36.1 µM and a TGI (MALME-3M melanoma) of 30.6 µM. For the same molecule, the TGI (M14 melanoma) was 28.4 µM, the TGI (SN12C renal) was 36.4 µM and the TGI (SK-MEL-5 melanoma) was 33.4 µM. The TGI (SK-MEL-2 melanoma) was 30.7 µM, the TGI (786-0 renal) was 29 µM and the TGI (KM20L2 colon) was 58.6 µM. For the same molecule, the TGI (MOLT-4 leukemia) was 41 µM, the TGI (HCT-15 colon) was 44.1 µM and the TGI (DMS 273 small cell lung) was 38.7 µM. It also gave a TGI (RPMI-8226 leukemia) of 46.7 µM and a TGI (ACHN renal) of 30.5 µM.
N#Cc1nc(-c2cccs2)oc1N gave a TGI (U251 CNS) of over 100 µM, a TGI (SW-620 colon) of over 100 µM and a TGI (MDA-N) of over 100 µM. For the same molecule, the TGI (SK-MEL-28 melanoma) was over 100 µM, the TGI (OVCAR-4 ovarian) was over 100 µM and the TGI (UACC-257 melanoma) was over 100 µM. It also gave a TGI (CAKI-1 renal) of 53.1 µM, a TGI (HT29 colon) of over 100 µM and a TGI (BT-549 breast) of over 100 µM. For the same molecule, the TGI (K-562 leukemia) was over 100 µM, the TGI (A498 renal) was over 100 µM and the TGI (SR leukemia) was over 100 µM. For the same molecule, the TGI (COLO 205 colon) was over 100 µM, the TGI (PC-3 prostate) was over 100 µM and the TGI (SNB-75 CNS) was over 100 µM. For the same molecule, the TGI (HOP-92 NSCLC) was over 100 µM, the TGI (UO-31 renal) was over 100 µM and the TGI (OVCAR-3 ovarian) was over 100 µM. It also gave a TGI (EKVX NSCLC) of over 100 µM, a TGI (MCF7 breast) of over 100 µM and a TGI (OVCAR-8 ovarian) of over 100 µM. It also gave a TGI (LOX IMVI melanoma) of over 100 µM, a TGI (HCT-116 colon) of over 100 µM and a TGI (A549 NSCLC) of over 100 µM. The TGI (HL-60(TB) leukemia) was over 100 µM, the TGI (HOP-62 NSCLC) was over 100 µM and the TGI (NCI-H460 lung) was over 100 µM. It also gave a TGI (HS 578T breast) of over 100 µM, a TGI (SF-268 CNS) of over 100 µM and a TGI (UACC-62 melanoma) of over 100 µM. It also gave a TGI (CCRF-CEM leukemia) of over 100 µM, a TGI (NCI-H226 lung) of over 100 µM and a TGI (T-47D breast) of over 100 µM. It also gave a TGI (HCC-2998 colon) of over 100 µM, a TGI (RXF 393 renal) of over 100 µM and a TGI (NCI-H23 lung) of over 100 µM. For the same molecule, the TGI (OVCAR-5 ovarian) was over 100 µM, the TGI (SF-295 CNS) was over 100 µM and the TGI (IGROV1 ovarian) was over 100 µM. The TGI (TK-10 renal) was over 100 µM, the TGI (SNB-19 CNS) was over 100 µM and the TGI (SF-539 CNS) was over 100 µM. It also gave a TGI (NCI-H522 lung) of 92 µM, a TGI (DU-145 prostate) of over 100 µM and a TGI (KM12 colon) of over 100 µM. For the same molecule, the TGI (MALME-3M melanoma) was over 100 µM, the TGI (M14 melanoma) was over 100 µM and the TGI (NCI/ADR-RES ovarian) was over 100 µM. It also gave a TGI (SN12C renal) of over 100 µM, a TGI (SK-MEL-5 melanoma) of over 100 µM and a TGI (SK-MEL-2 melanoma) of over 100 µM. For the same molecule, the TGI (786-0 renal) was over 100 µM, the TGI (MOLT-4 leukemia) was over 100 µM and the TGI (HCT-15 colon) was over 100 µM. The TGI (MDA-MB-231 breast) was over 100 µM, the TGI (MDA-MB-435) was over 100 µM and the TGI (RPMI-8226 leukemia) was over 100 µM. It also gave a TGI (SK-OV-3 ovarian) of over 100 µM and a TGI (ACHN renal) of over 100 µM.
